Experimental data reported in US20180099931A1 (AbbVie S.à.r.l., priority 2016, published 2018).
Like-named read-outs stand apart in the source and are kept apart here.

Molecular target: T1, F508delCFTR (Homo sapiens, UniProt P13569, DEL508-508)
T1 construct: expressed in transfected cells; host or cells: CFBE41o- human lung-derived epithelial cells (CFBE4lo-F508delCFTR-HRP), doxycycline-inducible
Assay: Cell Surface Expression-Horse Radish Peroxidase (CSE-HRP) Assay;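 on Maximum % activity (with co-corrector): co-corrector and positive control are both the same reference corrector at 2 µM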;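 on Maximum % activity (without co-corrector): percent of the 2 µM on-plate positive control corrector response above DMSO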
Type: cell-based
Settings: for Maximum % activity (with co-corrector): with co-corrector (2 μM); for Maximum % activity (with co-corrector) / Emax: maximum at any tested concentration, normalized to on-plate positive control; for Emax: without co-corrector, read-out: Maximum % activity (without co-corrector)

[1] = test compound without co-corrector, read-out: EC50 (without co-corrector)
[2] = with co-corrector (2 μM of 3-[(2R,4R)-4-({[1-(2,2-difluoro-1,3-benzodioxol-5-yl)cyclopropyl]carbonyl}amino)-7-methoxy-3,4-dihydro-2H-chromen-2-yl]benzoic acid), read-out: EC50 (with co-corrector)

T1 sequence (P13569 with tags, fused parts or gaps DEL508-508): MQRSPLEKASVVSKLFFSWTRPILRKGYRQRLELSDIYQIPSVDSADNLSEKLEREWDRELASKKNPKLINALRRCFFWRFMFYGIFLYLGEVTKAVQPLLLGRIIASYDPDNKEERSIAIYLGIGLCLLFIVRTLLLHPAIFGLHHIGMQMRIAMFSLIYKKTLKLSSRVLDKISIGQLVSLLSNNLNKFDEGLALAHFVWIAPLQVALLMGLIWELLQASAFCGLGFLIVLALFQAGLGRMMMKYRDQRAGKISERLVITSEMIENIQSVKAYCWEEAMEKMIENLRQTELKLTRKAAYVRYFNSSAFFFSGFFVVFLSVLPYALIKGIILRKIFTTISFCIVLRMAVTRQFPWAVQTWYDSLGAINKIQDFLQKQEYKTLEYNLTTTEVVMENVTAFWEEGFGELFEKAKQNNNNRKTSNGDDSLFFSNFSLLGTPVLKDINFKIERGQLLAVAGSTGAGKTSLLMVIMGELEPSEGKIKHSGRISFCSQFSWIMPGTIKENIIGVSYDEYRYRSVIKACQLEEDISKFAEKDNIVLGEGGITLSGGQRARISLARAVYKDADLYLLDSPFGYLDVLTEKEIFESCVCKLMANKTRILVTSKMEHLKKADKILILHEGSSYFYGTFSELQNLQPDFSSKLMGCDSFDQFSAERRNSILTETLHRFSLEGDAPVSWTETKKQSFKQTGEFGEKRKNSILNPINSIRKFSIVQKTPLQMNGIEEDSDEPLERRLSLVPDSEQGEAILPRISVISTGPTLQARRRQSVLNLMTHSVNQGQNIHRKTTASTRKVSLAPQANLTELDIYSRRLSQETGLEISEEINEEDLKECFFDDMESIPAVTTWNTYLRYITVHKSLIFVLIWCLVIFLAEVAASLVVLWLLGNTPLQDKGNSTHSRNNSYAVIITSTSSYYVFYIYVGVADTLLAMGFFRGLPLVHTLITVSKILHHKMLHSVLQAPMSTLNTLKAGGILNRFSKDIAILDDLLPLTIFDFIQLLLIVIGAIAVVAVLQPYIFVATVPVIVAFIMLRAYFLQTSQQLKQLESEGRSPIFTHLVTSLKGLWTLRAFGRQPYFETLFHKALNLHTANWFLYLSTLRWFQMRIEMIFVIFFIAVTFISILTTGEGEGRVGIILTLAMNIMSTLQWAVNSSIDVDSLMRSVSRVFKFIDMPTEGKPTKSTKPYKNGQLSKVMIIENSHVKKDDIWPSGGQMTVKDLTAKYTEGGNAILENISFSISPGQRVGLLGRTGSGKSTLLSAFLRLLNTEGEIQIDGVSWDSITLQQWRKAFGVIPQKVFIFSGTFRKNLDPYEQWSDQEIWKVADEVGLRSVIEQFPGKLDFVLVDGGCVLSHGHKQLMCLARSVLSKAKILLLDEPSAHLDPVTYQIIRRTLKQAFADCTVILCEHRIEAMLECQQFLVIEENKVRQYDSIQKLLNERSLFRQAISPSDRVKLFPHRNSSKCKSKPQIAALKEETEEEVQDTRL

Row | Structure (SMILES) | EC50 [1] | EC50 [2] | Maximum % activity (with co-corrector) | Emax
1 | COc1ccc(C(F)(F)F)cc1CN[C@H]1[C@H](C(C)(C)C)[C@@H](C(=O)O)N(C(=O)C2CC3CC3C2)[C@H]1c1ccccc1 (stereo partly shown) [Example I-162] | 1000 to 10000 nM | 1000 to 10000 nM | +++ (≥350) | 100 to 200%
2 | COc1ccc(C(F)(F)F)cc1CN[C@H]1[C@H](C(C)(C)C)[C@@H](C(=O)O)N(C(=O)C2CCC(C(F)(F)F)C2)[C@H]1c1ccccc1 (stereo partly shown) [Example I-163] | 1000 to 10000 nM | 1000 to 10000 nM | +++ (≥350) | 100 to 200%
3 | COc1ccc(C(F)(F)F)cc1CN[C@H]1[C@H](C(C)(C)C)[C@@H](C(=O)O)N(C(=O)C2CCC(C)(C)O2)[C@H]1c1ccccc1 (stereo partly shown) [Example I-164] | 1000 to 10000 nM | 1000 to 10000 nM | +++ (≥350) | > 200%
4 | COc1ccc(C(C)(C)C)cc1CN[C@H]1[C@H](C(C)(C)C)[C@@H](C(=O)O)N(C(=O)[C@H]2COc3ccccc3O2)[C@H]1c1ccccc1 [Example I-167] | 1000 to 10000 nM | < 1000 nM | +++ (≥350) | > 200%
5 | COc1cnc(C2CCC2)cc1CN[C@H]1[C@H](C(C)(C)C)[C@@H](C(=O)O)N(C(=O)C2CCCCC2)[C@H]1c1ccccc1 [Example I-168] | 1000 to 10000 nM | 1000 to 10000 nM | +++ (≥350) | < 100%
6 | COc1ccc(C2(C(F)(F)F)CC2)nc1CN[C@H]1[C@H](C(C)(C)C)[C@@H](C(=O)O)N(C(=O)C2CCCCC2)[C@H]1c1ccccc1 [Example I-170] | 1000 to 10000 nM | 1000 to 10000 nM | +++ (≥350) | < 100%
7 | COc1ccc([Si](C)(C)C)cc1CN[C@H]1[C@H](C(C)(C)C)[C@@H](C(=O)O)N(C(=O)C2CCCCC2)[C@H]1c1ccccc1 [Example I-171] | < 1000 nM | < 1000 nM | – | –
8 | COc1ccc(C(C)(C)C)cc1CN[C@H]1[C@H](C(C)(C)C)[C@@H](C(=O)O)N(C(=O)C2CC3CCC(C2)O3)[C@H]1c1ccccc1 (stereo partly shown) [Example I-172] | 1000 to 10000 nM | 1000 to 10000 nM | +++ (≥350) | > 200%
9 | COc1ccc(C(C)(C)C)cc1CN[C@@H]1[C@@H](C(C)(C)C)[C@H](C(=O)O)N(C(=O)C2CCCCC2)[C@H]1c1ccccc1 [Example I-173] | 1000 to 10000 nM | 1000 to 10000 nM | ++ (≥150 and <350) | < 100%
10 | COc1ccc(C(F)(F)F)cc1CN[C@H]1[C@H](C(C)(C)OC)[C@@H](C(=O)O)N(C(=O)OC(C)C)[C@H]1c1ccccc1 [Example I-174] | 1000 to 10000 nM | 1000 to 10000 nM | +++ (≥350) | > 200%
11 | COc1ccc(C2(C(F)(F)F)CC2)cc1CN[C@H]1[C@H](C(C)(C)C)[C@@H](C(=O)O)N(C(=O)[C@@H]2CCCCO2)[C@H]1c1cccnc1N(C)C [Example I-176] | 1000 to 10000 nM | 1000 to 10000 nM | +++ (≥350) | > 200%
12 | COc1nc(C(C)(C)C)ccc1CN[C@H]1[C@H](C(C)(C)C)[C@@H](C(=O)O)N(C(=O)C2CCCCO2)[C@H]1c1ccccc1C(C)C (stereo partly shown) [Example I-177] | < 1000 nM | < 1000 nM | +++ (≥350) | > 200%
13 | COc1nc(C(C)(C)C)ccc1CN[C@H]1[C@H](C(C)(C)C)[C@@H](C(=O)O)N(C(=O)C2CCCC(F)(F)C2)[C@H]1c1ccccc1 (stereo partly shown) [Example I-180] | 1000 to 10000 nM | 1000 to 10000 nM | +++ (≥350) | > 200%
14 | COc1nc(C(C)(C)C)ccc1CN[C@H]1[C@H](C(C)(C)C)[C@@H](C(=O)O)N(C(=O)[C@H](C)c2ccccc2)[C@H]1c1ccccc1 [Example I-182] | 1000 to 10000 nM | 1000 to 10000 nM | +++ (≥350) | 100 to 200%
15 | COc1ncc(C(F)(F)F)cc1CN[C@H]1[C@H](C(C)(C)C)[C@@H](C(=O)O)N(C(=O)C2CCCC(F)(F)C2)[C@H]1c1ccccc1 (stereo partly shown) [Example I-183] | 1000 to 10000 nM | < 1000 nM | +++ (≥350) | 100 to 200%
16 | COc1ccc(SC(F)(F)F)cc1CN[C@H]1[C@H](C(C)(C)C)[C@@H](C(=O)O)N(C(=O)C2CCCCC2)[C@H]1c1ccccc1 [Example I-184] | 1000 to 10000 nM | < 1000 nM | +++ (≥350) | 100 to 200%
17 | COc1ccc(C(C)(C)C)cc1CN[C@H]1[C@H](C(C)(C)C)[C@@H](C(=O)O)N(C(=O)C2CCCCC2)[C@H]1c1ccccc1C(C)C [Example I-185] | < 1000 nM | < 1000 nM | +++ (≥350) | > 200%
18 | COc1ccc(C(C)(C)C)cc1CN[C@H]1[C@H](C(C)(C)C)[C@@H](C(=O)O)N(C(=O)C2CC3CC3C2)[C@H]1c1ccccc1 (stereo partly shown) [Example I-186] | 1000 to 10000 nM | 1000 to 10000 nM | +++ (≥350) | 100 to 200%
19 | COc1nc(C(C)(C)C)ccc1CN[C@H]1[C@H](C(C)(C)C)[C@@H](C(=O)O)N(C(=O)C2CCCCC2)[C@H]1c1ccccc1C(C)C [Example I-187] | < 1000 nM | < 1000 nM | +++ (≥350) | > 200%
20 | COc1ccc2ccccc2c1CN[C@H]1[C@H](C(C)(C)C)[C@@H](C(=O)O)N(C(=O)C2CCCCC2)[C@H]1c1ccccc1 [Example I-188] | 1000 to 10000 nM | 1000 to 10000 nM | ++ (≥150 and <350) | < 100%
21 | COc1ncc([Si](C)(C)C)cc1CN[C@H]1[C@H](C(C)(C)C)[C@@H](C(=O)O)N(C(=O)[C@@H]2CCCC(F)(F)C2)[C@H]1c1ccccc1 [Example I-189] | < 1000 nM | < 1000 nM | – | –
22 | COc1cc2c(cc1CN[C@H]1[C@H](C(C)(C)C)[C@@H](C(=O)O)N(C(=O)[C@@H]3CCCC(F)(F)C3)[C@H]1c1ccccc1)CCC2 [Example I-190] | 1000 to 10000 nM | < 1000 nM | +++ (≥350) | > 200%
23 | COc1ccc(C(C)(C)C)cc1CN[C@H]1[C@H](C(C)(C)C)[C@@H](C(=O)O)N(C(=O)C2CCCS2(=O)=O)[C@H]1c1ccccc1 (stereo partly shown) [Example I-192] | 1000 to 10000 nM | 1000 to 10000 nM | +++ (≥350) | 100 to 200%
24 | COc1nc(C(C)(C)C)ccc1CN[C@H]1[C@H](C(C)(C)C)[C@@H](C(=O)O)N(C(=O)OC(C)C)[C@H]1c1ccccc1 [Example I-194] | 1000 to 10000 nM | 1000 to 10000 nM | +++ (≥350) | > 200%
25 | COc1nc(C(C)(C)C)ccc1CN[C@H]1[C@H](C(C)(C)C)[C@@H](C(=O)O)N(C(=O)C2CCCC(OC)C2)[C@H]1c1ccccc1 (stereo partly shown) [Example I-197] | 1000 to 10000 nM | 1000 to 10000 nM | +++ (≥350) | > 200%
26 | COc1ccc(C(C)(C)C)cc1CN[C@H]1[C@H](C(C)(C)C)[C@@H](C(=O)O)N(C(=O)c2ccc3c(c2)OCCO3)[C@H]1c1cccnc1N(C)C [Example I-199] | 1000 to 10000 nM | 1000 to 10000 nM | +++ (≥350) | 100 to 200%
